Results from patent publication US4345938A, “Herbicidal 2-haloacetanilides” (Monsanto Company, priority 1980, dated 1982).

Legend:
Assay type in all cases: in vivo
[1] = system: Upland seeded rice; assay: Upland seeded rice greenhouse test, rice safety; conditions: Upland seeded rice, greenhouse; maximum test rate
Procedure: In another comparative test in the greenhouse, the compound of Example 2 and Compound B were tested in Upland seeded rice. […] In contrast, Compound A, (a commercial rice herbicide), required 0.14 kg/ha (0.125 lb/A) to selectively control the same weed with rice safety also maintained at 1.12 kg/ha resulting in a selectivity factor of at least 8, i.e., less than one-half that of the compound of Example 2.

[2] = system: Velvetleaf; assay: Pre-emergent herbicidal test, Velvetleaf; also: ranges in brackets are in %
Text: (§1) A good grade of top soil is placed in aluminum pans and compacted to a depth of three-eights to one-half inch from the top of the pan. On the top of the soil is placed a number of seeds or vegetative propagules of various plant species. The soil required to level fill the pans after seeding or adding vegetative propagules is weighted into a pan. The soil and a known amount of the active ingredient applied in a solvent or as a wettable powder suspension are thoroughly mixed, and used to cover the prepared pans. After treatment, the pans are moved into a greenhouse bench where they are watered by subirrigation as needed to give adequate moisture for germination and growth.
(§2) Approximately 2 weeks after seeding and treating, the plants were observed and the results recorded. The herbicidal rating was obtained by means of a fixed scale based on the percent injury of each plant species. The ratings are defined as follows: […]

[3] = system: Johnsongrass; assay: Pre-emergent herbicidal test, Johnsongrass; conditions: Table I; also: ranges in brackets are in %
Text: as §1, §2

[4] = system: Yellow Nutsedge; assay: Pre-emergent herbicidal test, Yellow Nutsedge; conditions: Table I; also: ranges in brackets are in %
Text: as §1, §2

[5] = system: Smartweed; assay: Pre-emergent herbicidal test, Smartweed; also: ranges in brackets are in %
Text: as §1, §2

[6] = system: Downy Brome; assay: Pre-emergent herbicidal test, Downy Brome; also: ranges in brackets are in %
Text: as §1, §2

[7] = system: Sugarbeet; assay: Pre-emergent herbicidal test, Sugarbeet; conditions: Table II; also: ranges in brackets are in %
Text: as §1, §2
(§3) The compounds were further tested by utilizing the above procedure on the following plant species: […]

[8] = system: Panicum Spp.; assay: Pre-emergent herbicidal test, Panicum Spp.; also: ranges in brackets are in %; conditions: Table II
Text: as §1, §2, §3

[9] = system: Sorghum; assay: Pre-emergent herbicidal test, Sorghum; conditions: Table II; also: ranges in brackets are in %
Text: as §1, §2, §3

[10] = system: Hemp Sesbania; assay: Pre-emergent herbicidal test, Hemp Sesbania; conditions: Table II; also: ranges in brackets are in %
Text: as §1, §2, §3

[11] = system: Cocklebur; assay: Pre-emergent herbicidal test, Cocklebur; conditions: Table II; also: ranges in brackets are in %
Text: as §1, §2

[12] = system: Soybean; assay: Pre-emergent herbicidal test, Soybean; conditions: Table II; also: ranges in brackets are in %
Text: as §1, §2, §3

[13] = system: Lambsquarters; assay: Pre-emergent herbicidal test, Lambsquarters; also: ranges in brackets are in %
Text: as §1, §2

[14] = system: Crabgrass; assay: Pre-emergent herbicidal test, Crabgrass; conditions: Table II; also: ranges in brackets are in %
Text: as §1, §2, §3

[15] = system: Barnyardgrass; assay: Pre-emergent herbicidal test, Barnyardgrass; also: ranges in brackets are in %
Text: as §1, §2

[16] = system: Morningglory; assay: Pre-emergent herbicidal test, Morningglory; also: ranges in brackets are in %
Text: as §1, §2

[17] = system: Rice; assay: Pre-emergent herbicidal test, Rice; conditions: Table II; also: ranges in brackets are in %
Text: as §1, §2, §3

[18] = system: Wheat; assay: Pre-emergent herbicidal test, Wheat; conditions: Table II; also: ranges in brackets are in %
Text: as §1, §2, §3

[19] = system: Quackgrass; assay: Pre-emergent herbicidal test, Quackgrass; conditions: Table I; also: ranges in brackets are in %
Text: as §1, §2

[20] = system: Wild Buckwheat; assay: Pre-emergent herbicidal test, Wild Buckwheat; conditions: Table II; also: ranges in brackets are in %
Text: as §1, §2, §3

Structure (SMILES): CCCCOCN(C(=O)CCl)c1c(CC)cccc1CC [Compound A, 2',6'-diethyl-N-(n-butoxymethyl)-2-chloroacetanilide]
- rate at which rice safety is maintained [1]: ≥ 1.12 kg/ha

Structure (SMILES): CCCCOc1cccc(CC)c1N(C)C(=O)CCl [Example 1, N-methyl-2'-n-butoxy-6'-ethyl-2-chloroacetanilide]
- Rating, Velvetleaf ([2]; Table I, 5.6 kg/h): 2 (50-74)
- Rating, Velvetleaf ([2]; Table I, 11.2 kg/h): 2 (50-74)
- Rating, Velvetleaf ([2]; Table II, 0.006 kg/h): 0 (0-24)
- Rating, Velvetleaf ([2]; Table II, 0.01 kg/h): 0 (0-24)
- Rating, Velvetleaf ([2]; Table II, 0.06 kg/h): 0 (0-24)
- Rating, Velvetleaf ([2]; Table II, 0.28 kg/h): 0 (0-24)
- Rating, Velvetleaf ([2]; Table II, 1.12 kg/h): 1 (25-49)
- Rating, Velvetleaf ([2]; Table II, 5.6 kg/h): 1 (25-49)
- Rating, Johnsongrass ([3]; 5.6 kg/h): 3 (75-100)
- Rating, Johnsongrass ([3]; 11.2 kg/h): 3 (75-100)
- Rating, Yellow Nutsedge ([4]; 5.6 kg/h): 3 (75-100)
- Rating, Yellow Nutsedge ([4]; 11.2 kg/h): 3 (75-100)
- Rating, Smartweed ([5]; Table I, 5.6 kg/h): 2 (50-74)
- Rating, Smartweed ([5]; Table I, 11.2 kg/h): 3 (75-100)
- Rating, Smartweed ([5]; Table II, 0.006 kg/h): 0 (0-24)
- Rating, Smartweed ([5]; Table II, 0.01 kg/h): 0 (0-24)
- Rating, Smartweed ([5]; Table II, 0.06 kg/h): 0 (0-24)
- Rating, Smartweed ([5]; Table II, 0.28 kg/h): 2 (50-74)
- Rating, Smartweed ([5]; Table II, 1.12 kg/h): 3 (75-100)
- Rating, Smartweed ([5]; Table II, 5.6 kg/h): 3 (75-100)
- Rating, Downy Brome ([6]; Table I, 5.6 kg/h): 3 (75-100)
- Rating, Downy Brome ([6]; Table I, 11.2 kg/h): 3 (75-100)
- Rating, Downy Brome ([6]; Table II, 0.006 kg/h): 0 (0-24)
- Rating, Downy Brome ([6]; Table II, 0.01 kg/h): 1 (25-49)
- Rating, Downy Brome ([6]; Table II, 0.06 kg/h): 3 (75-100)
- Rating, Downy Brome ([6]; Table II, 0.28 kg/h): 3 (75-100)
- Rating, Downy Brome ([6]; Table II, 1.12 kg/h): 3 (75-100)
- Rating, Downy Brome ([6]; Table II, 5.6 kg/h): 3 (75-100)
- Rating, Sugarbeet ([7]; 0.006 kg/h): 0 (0-24)
- Rating, Sugarbeet ([7]; 0.01 kg/h): 0 (0-24)
- Rating, Sugarbeet ([7]; 0.06 kg/h): 0 (0-24)
- Rating, Sugarbeet ([7]; 0.28 kg/h): 1 (25-49)
- Rating, Sugarbeet ([7]; 1.12 kg/h): 2 (50-74)
- Rating, Sugarbeet ([7]; 5.6 kg/h): 3 (75-100)
- Rating, Panicum Spp. ([8]; 0.006 kg/h): 0 (0-24)
- Rating, Panicum Spp. ([8]; 0.01 kg/h): 1 (25-49)
- Rating, Panicum Spp. ([8]; 0.06 kg/h): 3 (75-100)
- Rating, Panicum Spp. ([8]; 0.28 kg/h): 3 (75-100)
- Rating, Panicum Spp. ([8]; 1.12 kg/h): 3 (75-100)
- Rating, Panicum Spp. ([8]; 5.6 kg/h): 3 (75-100)
- Rating, Sorghum ([9]; 0.006 kg/h): 0 (0-24)
- Rating, Sorghum ([9]; 0.01 kg/h): 0 (0-24)
- Rating, Sorghum ([9]; 0.06 kg/h): 2 (50-74)
- Rating, Sorghum ([9]; 0.28 kg/h): 3 (75-100)
- Rating, Sorghum ([9]; 1.12 kg/h): 3 (75-100)
- Rating, Sorghum ([9]; 5.6 kg/h): 3 (75-100)
- Rating, Hemp Sesbania ([10]; 0.006 kg/h): 2 (50-74)
- Rating, Hemp Sesbania ([10]; 0.01 kg/h): 2 (50-74)
- Rating, Hemp Sesbania ([10]; 0.06 kg/h): 3 (75-100)
- Rating, Hemp Sesbania ([10]; 0.28 kg/h): 3 (75-100)
- Rating, Hemp Sesbania ([10]; 1.12 kg/h): 3 (75-100)
- Rating, Hemp Sesbania ([10]; 5.6 kg/h): 3 (75-100)
- Rating, Cocklebur ([11]; 0.06 kg/h): 0 (0-24)
- Rating, Cocklebur ([11]; 5.6 kg/h): 0 (0-24)
- Rating, Soybean ([12]; 0.006 kg/h): 0 (0-24)
- Rating, Soybean ([12]; 0.01 kg/h): 0 (0-24)
- Rating, Soybean ([12]; 0.06 kg/h): 0 (0-24)
- Rating, Soybean ([12]; 0.28 kg/h): 0 (0-24)
- Rating, Soybean ([12]; 1.12 kg/h): 0 (0-24)
- Rating, Soybean ([12]; 5.6 kg/h): 1 (25-49)
- Rating, Lambsquarters ([13]; Table I, 5.6 kg/h): 3 (75-100)
- Rating, Lambsquarters ([13]; Table I, 11.2 kg/h): 3 (75-100)
- Rating, Lambsquarters ([13]; Table II, 0.006 kg/h): 0 (0-24)
- Rating, Lambsquarters ([13]; Table II, 0.01 kg/h): 0 (0-24)
- Rating, Lambsquarters ([13]; Table II, 0.06 kg/h): 0 (0-24)
- Rating, Lambsquarters ([13]; Table II, 0.28 kg/h): 2 (50-74)
- Rating, Lambsquarters ([13]; Table II, 1.12 kg/h): 3 (75-100)
- Rating, Lambsquarters ([13]; Table II, 5.6 kg/h): 3 (75-100)
- Rating, Crabgrass ([14]; 0.006 kg/h): 1 (25-49)
- Rating, Crabgrass ([14]; 0.01 kg/h): 3 (75-100)
- Rating, Crabgrass ([14]; 0.06 kg/h): 3 (75-100)
- Rating, Crabgrass ([14]; 0.28 kg/h): 3 (75-100)
- Rating, Crabgrass ([14]; 1.12 kg/h): 3 (75-100)
- Rating, Crabgrass ([14]; 5.6 kg/h): 3 (75-100)
- Rating, Barnyardgrass ([15]; Table I, 5.6 kg/h): 3 (75-100)
- Rating, Barnyardgrass ([15]; Table I, 11.2 kg/h): 3 (75-100)
- Rating, Barnyardgrass ([15]; Table II, 0.006 kg/h): 1 (25-49)
- Rating, Barnyardgrass ([15]; Table II, 0.01 kg/h): 2 (50-74)
- Rating, Barnyardgrass ([15]; Table II, 0.06 kg/h): 3 (75-100)
- Rating, Barnyardgrass ([15]; Table II, 0.28 kg/h): 3 (75-100)
- Rating, Barnyardgrass ([15]; Table II, 1.12 kg/h): 3 (75-100)
- Rating, Barnyardgrass ([15]; Table II, 5.6 kg/h): 3 (75-100)
- Rating, Morningglory ([16]; Table I, 5.6 kg/h): 2 (50-74)
- Rating, Morningglory ([16]; Table I, 11.2 kg/h): 1 (25-49)
- Rating, Morningglory ([16]; Table II, 0.006 kg/h): 0 (0-24)
- Rating, Morningglory ([16]; Table II, 0.06 kg/h): 0 (0-24)
- Rating, Morningglory ([16]; Table II, 0.28 kg/h): 0 (0-24)
- Rating, Morningglory ([16]; Table II, 1.12 kg/h): 2 (50-74)
- Rating, Morningglory ([16]; Table II, 5.6 kg/h): 3 (75-100)
- Rating, Rice ([17]; 0.006 kg/h): 1 (25-49)
- Rating, Rice ([17]; 0.01 kg/h): 1 (25-49)
- Rating, Rice ([17]; 0.06 kg/h): 1 (25-49)
- Rating, Rice ([17]; 0.28 kg/h): 3 (75-100)
- Rating, Rice ([17]; 1.12 kg/h): 3 (75-100)
- Rating, Rice ([17]; 5.6 kg/h): 3 (75-100)
- Rating, Wheat ([18]; 0.006 kg/h): 0 (0-24)
- Rating, Wheat ([18]; 0.01 kg/h): 0 (0-24)
- Rating, Wheat ([18]; 0.06 kg/h): 1 (25-49)
- Rating, Wheat ([18]; 0.28 kg/h): 2 (50-74)
- Rating, Wheat ([18]; 1.12 kg/h): 2 (50-74)
- Rating, Wheat ([18]; 5.6 kg/h): 3 (75-100)
- Rating, Quackgrass ([19]; 5.6 kg/h): 3 (75-100)
- Rating, Quackgrass ([19]; 11.2 kg/h): 3 (75-100)
- Rating, Wild Buckwheat ([20]; 0.006 kg/h): 0 (0-24)
- Rating, Wild Buckwheat ([20]; 0.01 kg/h): 1 (25-49)
- Rating, Wild Buckwheat ([20]; 0.06 kg/h): 1 (25-49)
- Rating, Wild Buckwheat ([20]; 0.28 kg/h): 1 (25-49)
- Rating, Wild Buckwheat ([20]; 1.12 kg/h): 2 (50-74)
- Rating, Wild Buckwheat ([20]; 5.6 kg/h): 3 (75-100)
